Assay results published in patent US7611696B2, “Sunscreen compositions as well as dihydropyridines and dihydropyranes” (DSM IP Assets B.V., priority 2002, dated 2009).

Experiments:
[1] = UV absorption (λmax and ε) of the prepared UV-A screening compounds; format: physicochemical; settings: UV absorption maximum; solvent not stated

| UV: λmax [1] | melting point | SMILES |
| --- | --- | --- |
| 370 nm |  | CCCCC(CC)COCCCN1C(C)=CC(=C(C#N)C#N)C=C1C (stereo not shown) [1-N-[3-(2-ethylhexyloxy)propyl]-4-dicyanomethylene-2,6-dimethyl-1,4-dihydropyridine] |
| 370 nm |  | CCCCN1C(C)=CC(=C(C#N)C#N)C=C1C [1-N-butyl-4-dicyanomethylene-2,6-dimethyl-1,4-dihydropyridine] |
| 372 nm | 187 °C | CCCCC(CC)CN1C(C)=CC(=C(C#N)C#N)C=C1C (stereo not shown) [Example 5, 1-N-(2-ethylhexyl)-4-dicyanomethylene-2,6-dimethyl-1,4-dihydropyridine] |
| 374 nm | 69 to 70 °C | CCCCC(CC)COC(=O)C(C#N)=C1C=C(C)N(CCCC)C(C)=C1 (stereo not shown) [Example 7, 2-ethylhexyl (1-N-butyl-2,6-dimethyl-1H-pyridin-4-ylidene)cyanoacetate] |

The next lines start with the molecule.

| SMILES | UV: λmax [1] | melting point |
| --- | --- | --- |
| CC1=CC(=C(C#N)C#N)C=C(C)N1CCC(C)CC(C)(C)C (stereo not shown) [1-N-[3,5,5-trimethylhexyl]-4-dicyanomethylene-2,6-dimethyl-1,4-dihydropyridine] | 372 nm |  |
| CCCCCCCCCCCCN1C(C)=CC(=C(C#N)C#N)C=C1C [1-N-dodecyl-4-dicyanomethylene-2,6-dimethyl-1,4-dihydropyridine] | 370 nm |  |
| CC1=CC(=C(C#N)C#N)C=C(C)N1C [1-N-methyl-4-dicyanomethylene-2,6-dimethyl-1,4-dihydropyridine] | 368 nm | > 250 °C |
| CCOC(=O)C(C#N)=C1C=C(C)OC(C)=C1 [Example 1, ethyl (2,6-dimethyl-pyran-4-ylidene) cyanoacetate] | 348 nm |  |
| CCCCC(CC)COC(=O)C(C#N)=C1C=C(C)OC(C)=C1 (stereo not shown) [Example 2, 2-ethylhexyl (2,6-dimethyl-pyran-4-ylidene) cyanoacetate] | 352 nm |  |
| CCC1=C(C)C(=C(C#N)C#N)C(C)=C(CC)O1 [Example 3, 2-(2,6-diethyl-3,5-dimethylpyran-4-ylidene)malononitrile] | 366 nm | 64 to 65 °C |
| CCCC1=C(CC)C(=C(C#N)C#N)C(CC)=C(CCC)O1 [Example 4, 2-(3,5-diethyl-2,6-dipropylpyran-4-ylidene)malononitrile] | 364 nm |  |
| CCCCC(CC)COCCCN1C(C)=CC(=C(C#N)C(=O)OCC(CC)CCCC)C=C1C (stereo not shown) [Example 8, 2-ethylhexyl (1-N-[3-(2-ethylhexyloxy)propyl]-2,6-di-methyl-1H-pyridin-4ylidene)cyanoacetate] | 366 nm | 69 to 70 °C |
| CC1=CC(=C(C#N)C#N)C=C(C)N1CCCOCCOCCOCCCN1C(C)=CC(=C(C#N)C#N)C=C1C [Example 9, 2-{1-[3-(2-{2-[3-(4-dicyanomethylene-2,6-dimethyl-4H-pyridin-1-yl)-propoxy]-ethoxy}-ethoxy)-propyl]-2,6-dimethyl-1H-pyridin-4-ylidene}-malononitrile] | 372 nm | 138 to 139 °C |
